Results on 74 compounds are retold here after PubChem BioAssay AID1208 (EPA DSSTox, 2008).

For this data set, the system named is rat chronic carcinogenicity bioassay, TD50. Nature of the data set: DSSTox (CPDBAS) Carcinogenic Potency Database Summary Rat Bioassay Results. To be noted: for Potency: stronger effect = lower value. In a few lines: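 The activity score maps log10(1/TD50_Rat_mmol) linearly onto 1–100; actives without a computed TD50, such as mixtures, receive 50. Source data are chronic rat carcinogenicity tests, using the most positive experiment for each sex.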

The mark [1] stands for this setting: TD50_Rat_Note: no positive results, TargetSites_Rat_Female: no positive results.
Setting [2] is: TD50_Rat_Note: TD50 is harmonic mean of more than one positive test, TargetSites_Rat_Female: mammary gland.
[3] abbreviates: TD50_Rat_Note: no positive results.
[4] abbreviates: TD50_Rat_Note: TD50 is harmonic mean of more than one positive test, TargetSites_Rat_Female: liver.
Setting [5] is: TD50_Rat_Note: TD50 is harmonic mean of more than one positive test, TargetSites_Rat_Female: kidney.

Molecules are shown by their SMILES. The source made the active and inactive calls.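 The calls were made as follows: active = at least one rat sex group has a carcinogenic potency value and tumor site recorded; inconclusive = only rat studies were judged inadequate by the national testing program; inactive = no potency or tumor site, with negative rat experiments.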 Where a SMILES comes first, the peptide text is derived from it.

For `N[C@@H](Cc1c[nH]c2ccccc12)C(=O)O`, the outcome under setting [1] was “inactive; no positive results”.

Turning to `CCc1ccccc1`, the Potency (TD50_Rat_Note: TD50 is harmonic mean of more than one positive test, greater than ten-fold variation among TD50 values for positive res, TargetSites_Rat_Female: Maltoni head cancers, kidney) is 72.6 mg/kg/day.

`CCCCCCCCCC[N+](C)(C)[O-]`: under setting [1], the outcome was “inactive; no positive results”.

For the compound `CCCCCCCCCc1ccc(OCCOCCO)cc1`, under setting [1], the result was inactive.

For the compound `CCCCCCOc1cc(C)c(O)c(C)c1C`, the result under setting [1] was inactive.

As for `NNc1nc(-c2ccc([N+](=O)[O-])cc2)cs1`, the Potency under setting [2] is 3.21 mg/kg/day.

For the compound `CC(N)=S`, the Potency is 11.5 mg/kg/day.

As to `CCOC(=O)C1OC1(C)c1ccccc1` (stereo not given), the outcome under setting [1] was “inactive; no positive results”.

Regarding `CCCCCN(N=O)C(N)=O`, the Potency (TD50_Rat_Note: TD50 is harmonic mean of more than one positive test, TargetSites_Rat_Female: hematopoietic system, lung, mammary gland, stomach, uterus) is 0.555 mg/kg/day.

As to `NCCCC(N)(C(=O)O)C(F)F` (stereo not given), the outcome under setting [1] was “inactive; no positive results”.

On to `COc1ccc2c(c1)c(CC(=O)O)c(C)n2C(=O)c1ccc(Cl)cc1`, for which, where the note is “TargetSites_Rat_Female: mammary gland”, the Potency was 1.15 mg/kg/day.

On to `C1CC2OC2CC1C1CO1` (stereo not given), for which the result under setting [1] was inactive.

In the case of `O=[N+]([O-])c1cc([As](=O)(O)O)ccc1O`, the outcome under setting [1] is “inactive; no positive results”.

For `Nc1nnc(-c2ccc([N+](=O)[O-])o2)o1`, the Potency (TargetSites_Rat_Female: kidney, lung, mammary gland, stomach) is 3.67 mg/kg/day.

In the case of `CN(C)CCN(Cc1cccs1)c1ccccc1`, under setting [1], the outcome was “inactive; no positive results”.

In the case of `CCCN(N=O)C(N)=O`, the Potency (TD50_Rat_Note: TD50 is harmonic mean of more than one positive test, harmonic mean of TD50 includes a value for upper 99% confidence li, TargetSites_Rat_Female: hematopoietic system) was 3.77 mg/kg/day.

Regarding `Cc1cc(C)nc(-c2ccc([N+](=O)[O-])o2)n1`, the Potency (TD50_Rat_Note: harmonic mean of TD50 includes a value for upper 99% confidence limit from study with 100% tumor incidence but no lifeta, TargetSites_Rat_Female: kidney, mammary gland, small intestine, stomach, vascular system) is 1.39 mg/kg/day.

Turning to `ClCC(Br)CBr` (stereo not given), the Potency (TD50_Rat_Note: TD50 is harmonic mean of more than one positive test, TargetSites_Rat_Female: adrenal gland, mammary gland, nasal cavity, oral cavity, stomach) was 0.259 mg/kg/day.

`CCCCCCCN`: the outcome under setting [3] is “inactive; no positive results”.

As for `CCCCN(N=O)C(N)=O`, the Potency (TD50_Rat_Note: TD50 is harmonic mean of more than one positive test, greater than ten-fold variation among TD50 values for positive res, TargetSites_Rat_Female: esophagus, ear Zymbals gland, hematopoietic system, large intestine, lung, mammary gland, stomach, uterus, vagina) is 0.517 mg/kg/day.

Consider `CCC(C)[N+](=O)[O-]` (stereo not given), for which the Potency is 2.86 mg/kg/day.

Turning to `CC1=C(C)C(=O)C(C(CCCCCC(=O)O)c2ccccc2)=C(C)C1=O` (stereo not given), the outcome under setting [1] was “inactive; no positive results”.

Consider `O=C(O)[C@@H]1[C@H](C(=O)O)[C@@]2(Cl)C(Cl)=C(Cl)[C@]1(Cl)C2(Cl)Cl`, for which, under setting [4], the Potency was 40.8 mg/kg/day.

Regarding `C[C@H](CCC(=O)O)[C@H]1CC[C@H]2[C@@H]3CC[C@@H]4C[C@H](O)CC[C@]4(C)[C@H]3CC[C@]12C`, under setting [1], the outcome was “inactive; no positive results”.

As to `CC1CN(N=O)C(=O)NC1=O` (stereo not given), the outcome under setting [1] is “inactive; no positive results”.

With `CN(C)CCOc1ccc(/C(=C(/CCCl)c2ccccc2)c2ccccc2)cc1`, the outcome under setting [1] is “inactive; no positive results”.

Turning to `CN(N=O)c1ccccc1`, the Potency (TD50_Rat_Note: TD50 is harmonic mean of more than one positive test, harmonic mean of TD50 includes a value for upper 99% confidence li, TargetSites_Rat_Female: esophagus) was 0.142 mg/kg/day.

As to `CC(C)O`, under setting [1], the outcome was “inactive; no positive results”.

On to `C[C@H]1CCCC(=O)CCC/C=C/c2cc(O)cc(O)c2C(=O)O1`, for which the outcome under setting [1] is “inactive; no positive results”.

On to `CN(C)c1ccc(C(=N)c2ccc(N(C)C)cc2)cc1`, for which the Potency was 11 mg/kg/day.

Regarding `CCN(C=O)CC`, the outcome under setting [3] is “inactive; no positive results”.

Turning to `NNC(=O)c1ccncc1`, under setting [2], the Potency is 150 mg/kg/day.

In the case of `ClC(Cl)Br`, the Potency (TD50_Rat_Note: TD50 is harmonic mean of more than one positive test, greater than ten-fold variation among TD50 values for positive res, TargetSites_Rat_Female: kidney, large intestine, liver) is 72.5 mg/kg/day.

Take `CCOP(=O)=O.CCOP(=O)=O.CCOP(=O)=O.[Al+3]`: where the note is “TargetSites_Rat_Female: no positive results”, the Potency is 3660 mg/kg/day.

For `CCC1(CC)C(=O)N=C(O)NC1=O`, the Potency (TD50_Rat_Note: TD50 is harmonic mean of more than one positive test, TargetSites_Rat_Female: no positive results) is 45.7 mg/kg/day.

In the case of `C=CCN(CC(C)O)N=O` (stereo not given), the Potency (TargetSites_Rat_Female: esophagus, liver, nasal cavity) was 0.877 mg/kg/day.

On to `COC(=O)[C@H](Cc1ccccc1)NC(=O)[C@@H](N)CC(=O)O` (H-Asp-Phe-OMe), for which the outcome under setting [1] was “inactive; no positive results”.

Take `Nc1cc(Cl)c(N)c(Cl)c1`: the outcome under setting [1] is “inactive; no positive results”.

As for `CCNC(=O)N(CCO)N=O`, the Potency under setting [2] was 0.562 mg/kg/day.

With `Cc1ccccc1N=O`, the Potency is 50.7 mg/kg/day.

Regarding `ClC(Cl)=C(Cl)C(Cl)=C(Cl)Cl`, the Potency under setting [5] was 65.8 mg/kg/day.

In the case of `Cc1ccc(NC(N)=O)cc1`, the outcome under setting [1] was “inactive; no positive results”.

Take `[C-]1=CC=CC1.[C-]1=CC=CC1.[Cl-].[Cl-].[Ti+4]`: the outcome under setting [1] is “inactive; no positive results”.

`C/C=C/C=O`: the Potency was 4.2 mg/kg/day.

Take `CC1=C2C(=CO[C@@H](C)[C@@H]2C)C(=O)C(C(=O)O)=C1O`: the Potency (TD50_Rat_Note: TD50 value is overestimated as upper 99% confidence limit from study with 100% tumor incidence but no lifetable, TD50 is) is 7.48 mg/kg/day.

For `COP(=O)(OC)O/C(=C\Cl)c1cc(Cl)c(Cl)cc1Cl`, the outcome (TD50_Rat_Note: no positive results, TargetSites_Rat_Female: no positive results- CPDB evaluation based on NCI Technical Report) was “no positive results”.

In the case of `S=C=NCCCCCCc1ccccc1`, the outcome under setting [3] was “inactive; no positive results”.

`CCOP(=S)(OCC)Oc1ccc([N+](=O)[O-])cc1`: the outcome under setting [1] was “inactive; no positive results”.

As to `NC(=O)OCC(COC(N)=O)c1ccccc1`, the Potency under setting [4] is 1090 mg/kg/day.

Take `O=P(OCC(Br)CBr)(OCC(Br)CBr)OCC(Br)CBr` (stereo not given): under setting [5], the Potency is 3.83 mg/kg/day.

As to `FC(F)(Cl)Cl`, the outcome under setting [1] is “inactive; no positive results”.

With `S=C([S-])NCCNC(=S)[S-].[Zn+2]`, the outcome under setting [1] is “inactive; no positive results”. Further, the Potency (TargetSites_Rat_BothSexes: all tumor bearing animals) is 255 mg/kg/day.

For the compound `OC[C@H]1O[C@@H]2O[C@H]3[C@H](O)[C@@H](O)[C@@H](O[C@H]4[C@H](O)[C@@H](O)[C@@H](O[C@H]5[C@H](O)[C@@H](O)[C@@H](O[C@H]6[C@H](O)[C@@H](O)[C@@H](O[C@H]7[C@H](O)[C@@H](O)[C@@H](O[C@H]8[C@H](O)[C@@H](O)[C@@H](O[C@H]1[C@H](O)[C@H]2O)O[C@@H]8CO)O[C@@H]7CO)O[C@@H]6CO)O[C@@H]5CO)O[C@@H]4CO)O[C@@H]3CO`, the outcome under setting [1] is “inactive; no positive results”.

Take `COc1ccc(OC)c(/C=C/c2ccc(N)cc2)c1`: the Potency is 0.721 mg/kg/day.

For `Cc1ccc2c(c1N)C(=O)c1ccccc1C2=O`, the Potency under setting [4] was 59.2 mg/kg/day.

For the compound `CCCN(CCC)c1ccc(N=Nc2cc[n+]([O-])cc2)cc1`, under setting [3], the outcome is “inactive; no positive results”.

With `CN(C)CCOC(c1ccccc1)c1ccccc1`, the outcome under setting [1] was “inactive; no positive results”.

On to `Nc1ccc(Nc2ccccc2)cc1`, for which the outcome under setting [1] was “inactive; no positive results”.

In the case of `CC(C)(C)c1cc(CO)cc(C(C)(C)C)c1O`, the outcome under setting [1] was “inactive; no positive results”.

For `Cc1nnc2n1-c1sc(CCc3ccc(CC(C)C)cc3)cc1C(c1ccccc1Cl)=NC2C` (stereo not given), the outcome under setting [1] was “inactive; no positive results”.

On to `ClC1=C(Cl)C(Cl)(Cl)C(Cl)=C1Cl`, for which the outcome under setting [1] was “inactive; no positive results”.

Turning to `CC(=O)C(N=Nc1ccc(-c2ccc(N=NC(C(C)=O)C(=O)Nc3ccccc3)c(Cl)c2)cc1Cl)C(=O)Nc1ccccc1` (stereo not given), under setting [1], the outcome is “inactive; no positive results”.

As to `Nc1ccc2cc3ccc(N)cc3nc2c1`, under “TD50_Rat_Note: only experiment is NCI/NTP bioassay inadequate, TargetSites_Rat_Female: NTP bioassay inadequate”, the outcome is reported as “ntp bioassay inadequate”.

As for `BrC(Br)Br`, the Potency (TD50_Rat_Note: TD50 is harmonic mean of more than one positive test, TargetSites_Rat_Female: large intestine) is 648 mg/kg/day.

With `C[C@@H]1Cc2c(Cl)cc(C(=O)N[C@@H](Cc3ccccc3)C(=O)O)c(O)c2C(=O)O1`, the Potency (TD50_Rat_Note: TD50 is harmonic mean of more than one positive test, TargetSites_Rat_Female: kidney, mammary gland) was 0.136 mg/kg/day.

Consider `NCCS(=O)(=O)O`, for which, under setting [1], the outcome was “inactive; no positive results”.

In the case of `O=NN(CCO)CC(O)CO` (stereo not given), under “TargetSites_Rat_Female: liver”, the Potency is 5.98 mg/kg/day.

Turning to `O=C(C1CCCCC1)N1CC(=O)N2CCc3ccccc3C2C1` (stereo not given), the outcome under setting [1] is “inactive; no positive results”.

On to `Nc1nc(N)nc(-c2ccccc2)n1`, for which the outcome under setting [3] is “inactive; no positive results”.

With `C=CC(N)=O`, the Potency (TD50_Rat_Note: TD50 is harmonic mean of more than one positive test, TargetSites_Rat_Female: clitoral gland, mammary gland, nervous system, oral cavity, thyroid gland, uterus) is 3.75 mg/kg/day.

On to `C[C@H]1C(=O)O[C@@H]2CCN3CC=C(COC(=O)[C@](C)(O)[C@]1(C)O)[C@H]23`, for which the Potency (TD50_Rat_Note: TD50 is harmonic mean of more than one positive test) is 0.94 mg/kg/day.

On to `O=C1C=C(N2CC2)C(=O)C(N2CC2)=C1N1CC1`, for which the Potency (TD50_Rat_Note: positive test results only by intraperitoneal or intravenous injection) was 0.00504 mg/kg/day.

As for `CC1=CC(C)(C)N(N=O)c2ccccc21`, the Potency (TD50_Rat_Note: positive test results only by intraperitoneal or intravenous injection, TD50_Rat_mmol was not calculated for this mixtur) is 3.31 mg/kg/day.

`O=C(O)c1ccccc1-c1c2cc(I)c(=O)c(I)c-2oc2c(I)c(O)c(I)cc12`: the outcome under setting [1] was “inactive; no positive results”.
